According to US12180187B2, “1-phenyl-5-azinylpyrazolyl-3-oxyalkyl acids and their use for controlling unwanted plant growth” (BAYER AKTIENGESELLSCHAFT, priority 2019, dated 2024):

Tests used:
ABUTH = assay: Post-emergence action against ABUTH, 1.28 kg/ha; type: in vivo, Abutilon theophrasti; settings: dosage 1280 g/ha, visual rating about 3 weeks after treatment vs untreated controls (100% = plants died)
How it was run: (§1)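 Greenhouse-grown weeds (sandy loam, twin-sown pots) were treated 2–3 weeks post-sowing at one leaf. The spray was an aqueous WP/EC preparation plus 0.5% additive, applied at 600 L/ha. Scoring was visual at ~3 weeks, 0–100% versus untreated controls.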

STEME [1] = assay: Pre-emergence action against STEME, 1280 g/ha; type: in vivo, Stellaria media; settings: scored visually after about 3 weeks vs untreated controls (100% = plants have died)
How it was run: (§2)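 Greenhouse pre-emergence test on sown seeds in sandy loam; soil-surface spray of formulated compound with 0.5% additive at 600 L/ha water. Scored visually, % vs untreated, after about 3 weeks.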

LOLRI [2] = assay: Post-emergence action against LOLRI, 1.28 kg/ha; type: in vivo, Lolium rigidum; settings: dosage 1280 g/ha, visual rating about 3 weeks after treatment vs untreated controls
How it was run: as §1

POAAN [3] = assay: Pre-emergence action against POAAN, 1280 g/ha; type: in vivo, Poa annua; settings: visual scoring after about 3 weeks vs untreated controls, 100% = plants have died, 0% = like control plants
How it was run: as §2

VERPE [4] = assay: Pre-emergence action against VERPE, 1280 g/ha; type: in vivo, Veronica persica; settings: scored visually after about 3 weeks vs untreated controls (100% = plants have died)
How it was run: as §2

MATIN [5] = assay: Pre-emergence action against MATIN, 1280 g/ha; type: in vivo, Tripleurospermum inodorum (Matricaria inodora); settings: scored visually after about 3 weeks vs untreated controls (100% = plants have died)
How it was run: as §2

MATIN [6] = assay: Post-emergence action against MATIN, 1.28 kg/ha; type: in vivo, Tripleurospermum inodorum (Matricaria inodora); settings: dosage 1280 g/ha, visual rating about 3 weeks after treatment vs untreated controls (100% = plants died)
How it was run: as §1

AMARE [7] = assay: Post-emergence action against AMARE, 1.28 kg/ha; type: in vivo, Amaranthus retroflexus; settings: dosage 1280 g/ha, visual rating about 3 weeks after treatment vs untreated controls (100% = plants died)
How it was run: as §1

DIGSA [8] = assay: Pre-emergence action against DIGSA, 1280 g/ha; type: in vivo, Digitaria sanguinalis; settings: visual scoring after about 3 weeks vs untreated controls, 100% = plants have died, 0% = like control plants
How it was run: as §2

AMARE [9] = assay: Pre-emergence action against AMARE, 1280 g/ha; type: in vivo, Amaranthus retroflexus; settings: scored visually after about 3 weeks vs untreated controls (100% = plants have died)
How it was run: as §2

ALOMY [10] = assay: Post-emergence action against ALOMY, 1.28 kg/ha; type: in vivo, Alopecurus myosuroides; settings: dosage 1280 g/ha, visual rating about 3 weeks after treatment vs untreated controls
How it was run: as §1

KCHSC [11] = assay: Post-emergence action against KCHSC, 1.28 kg/ha; type: in vivo, Bassia scoparia; settings: dosage 1280 g/ha, visual rating about 3 weeks after treatment vs untreated controls (100% = plants died)
How it was run: as §1

SETVI [12] = assay: Pre-emergence action against SETVI, 1280 g/ha; type: in vivo, Setaria viridis; settings: visual scoring after about 3 weeks vs untreated controls, 100% = plants have died, 0% = like control plants
How it was run: as §2

VERPE [13] = assay: Post-emergence action against VERPE, 1.28 kg/ha; type: in vivo, Veronica persica; settings: dosage 1280 g/ha, visual rating about 3 weeks after treatment vs untreated controls (100% = plants died)
How it was run: as §1

POAAN [14] = assay: Post-emergence action against POAAN, 1.28 kg/ha; type: in vivo, Poa annua; settings: dosage 1280 g/ha, visual rating about 3 weeks after treatment vs untreated controls
How it was run: as §1

LOLRI [15] = assay: Pre-emergence action against LOLRI, 1280 g/ha; type: in vivo, Lolium rigidum; settings: visual scoring after about 3 weeks vs untreated controls, 100% = plants have died, 0% = like control plants
How it was run: as §2

KCHSC [16] = assay: Pre-emergence action against KCHSC, 1280 g/ha; type: in vivo, Bassia scoparia; settings: scored visually after about 3 weeks vs untreated controls (100% = plants have died)
How it was run: as §2

STEME [17] = assay: Post-emergence action against STEME, 1.28 kg/ha; type: in vivo, Stellaria media; settings: dosage 1280 g/ha, visual rating about 3 weeks after treatment vs untreated controls (100% = plants died)
How it was run: as §1

SETVI [18] = assay: Post-emergence action against SETVI, 1.28 kg/ha; type: in vivo, Setaria viridis; settings: dosage 1280 g/ha, visual rating about 3 weeks after treatment vs untreated controls
How it was run: as §1

ECHCG [19] = assay: Pre-emergence action against ECHCG, 1280 g/ha; type: in vivo, Echinochloa crus-galli; settings: visual scoring after about 3 weeks vs untreated controls, 100% = plants have died, 0% = like control plants
How it was run: as §2

ECHCG [20] = assay: Post-emergence action against ECHCG, 1.28 kg/ha; type: in vivo, Echinochloa crus-galli; settings: dosage 1280 g/ha, visual rating about 3 weeks after treatment vs untreated controls
How it was run: as §1

DIGSA [21] = assay: Post-emergence action against DIGSA, 1.28 kg/ha; type: in vivo, Digitaria sanguinalis; settings: dosage 1280 g/ha, visual rating about 3 weeks after treatment vs untreated controls
How it was run: as §1

ALOMY [22] = assay: Pre-emergence action against ALOMY, 1280 g/ha; type: in vivo, Alopecurus myosuroides; settings: visual scoring after about 3 weeks vs untreated controls, 100% = plants have died, 0% = like control plants
How it was run: as §2

Compound | Post-emergence action against ABUTH (ABUTH) [%] | Pre-emergence action against STEME (STEME [1]) [%] | Post-emergence action against LOLRI (LOLRI [2]) [%] | Pre-emergence action against POAAN (POAAN [3]) [%] | Pre-emergence action against VERPE (VERPE [4]) [%] | Pre-emergence action against MATIN (MATIN [5]) [%] | Post-emergence action against MATIN (MATIN [6]) [%] | Post-emergence action against AMARE (AMARE [7]) [%] | Pre-emergence action against DIGSA (DIGSA [8]) [%] | Pre-emergence action against AMARE (AMARE [9]) [%] | Post-emergence action against ALOMY (ALOMY [10]) [%] | Post-emergence action against KCHSC (KCHSC [11]) [%] | Pre-emergence action against SETVI (SETVI [12]) [%] | Post-emergence action against VERPE (VERPE [13]) [%] | Post-emergence action against POAAN (POAAN [14]) [%] | Pre-emergence action against LOLRI (LOLRI [15]) [%] | Pre-emergence action against KCHSC (KCHSC [16]) [%] | Post-emergence action against STEME (STEME [17]) [%] | Post-emergence action against SETVI (SETVI [18]) [%] | Post-emergence action against ECHCG (ECHCG [20]) [%] | further results
CONC(=O)COc1nn(-c2ccc(F)cc2F)c(-c2ccc(F)nc2)c1Br [Example X-024] | 100 | 100 | 100 | 100 | 100 | 100 | 90 | 100 | 100 | 100 | 100 | 90 | 100 | 100 | 100 | 100 | 100 | 100 | 90 | 100 | Pre-emergence action against ECHCG (ECHCG [19]): 100%; Post-emergence action against DIGSA (DIGSA [21]): 100%; Pre-emergence action against ALOMY (ALOMY [22]): 100%
CCOC(=O)COc1nn(-c2ccc(F)cc2)c(-c2ccc(F)nc2)c1Br [VII-065] | 90 | 100 | 90 | 100 | 100 | 90 | 100 | 90 | 100 | 100 | 100 | 100 | 100 | 90 | 100 | 100 | 100 | 100 | 90 | 100 | Pre-emergence action against ECHCG (ECHCG [19]): 100%; Post-emergence action against DIGSA (DIGSA [21]): 100%; Pre-emergence action against ALOMY (ALOMY [22]): 100%
O=C(O)COc1nn(-c2ccc(F)cc2F)c(-c2ccc(F)nc2)c1Br [VII-100] | 90 | 100 | 100 | 100 | 100 | 100 | 90 | 100 | 90 | 100 | 100 | 90 | 90 | 100 | 100 | 100 | 100 | 100 | 100 | 90 | Post-emergence action against DIGSA (DIGSA [21]): 90%
CCOC(=O)COc1nn(-c2ccc(F)cc2F)c(-c2ccc(F)nc2)c1Br [VII-101] | 90 | 100 | 100 | 100 | 100 | 100 | 100 | 90 | 100 | 100 | 100 | 90 | 100 | 100 | 100 | 100 | 100 | 100 | 100 | 100 | Pre-emergence action against ECHCG (ECHCG [19]): 90%; Post-emergence action against DIGSA (DIGSA [21]): 100%; Pre-emergence action against ALOMY (ALOMY [22]): 100%
